Laboratory results published in US5039665A, “Use of fructose-1,6-diphosphate for treating myocardial infarction” (priority 1990, dated 1991).
“And” between values parts separate entries of the source, which are not always exact repeats. Equal entries are not always repeated. “Also recorded” adds a separate entry of the source.

Key:
[1] = test system: dogs subjected to hemorrhagic shock; experiment: irreversible hemorrhagic shock in dogs (modified Wiggers technique, 35 mm Hg for 3 hours); type: in vivo, dog; settings: for survival after retransfusion: retransfused at three hours
Method: In the experiments regarding an irreversible hemorrhagic shock, results were obtained in the dog model using Wigger's modified technique. We compared a group of animals receiving IV administration of fructose-1,6-diphosphate (FDP) to a group receiving equimolar glucose.
The experiments were performed in b 25 pentobarbital anesthetized (30 mg/kg IV) mongrel dogs of both sexes. After induction of anesthesia the animals were […] and ventilated with a Harvard respiration pump with the use of ambient air. Secured in the left lateral decubitus position on the fluoroscopic table, a femoral artery was used to introduce a large bore polyethylene catheter which was connected to a 1.5 liter bottle elevated at 35 mm Hg above the atrial level. In the connecting system an external calibrated electromagnetic flow probe (Statham) was incorporated in order to follow the direction and amount of blood flow. The pressure in this system was monitored through a side opening with the aid of a Statham pressure gauge. The other femoral artery was percutaneously catheterized and a Judkins type pigtail catheter was advanced to the aortic root. In the course of the experiments this catheter was placed intermittently into the left ventricle when recordings were made. This set-up enable us to monitor both aortic and left ventricular pressures via a single catheter. The femoral vein on the side where the incision was made was catheterized as well as a superficial vein of the front limb transutaneously for administration of the FDP, glucose, heparin and supplemental anesthetic. Parameters such as aortic, ventricular and femoral pressures, and EKG were monitored on an Electronics for Medicine DR-8 recorder. Recording of these parameters was made every 15 min. Heparin ([…] initially and thereafter 3 mg/kg/2 hrs) and antibiotics were given to all animals that were allowed to recover. A control period of one hour was allowed prior to bleeding the animal. During this period two arterial blood samples were drawn for pH, pO2, pCO2, pCO2 combining power and lactic acid determinations. During the oliegemic phase four arterial samples were taken for determination of the same parameters described at 30 min, 1 hr, 2 hrs, and 2 hrs 45 min.
The blood from the animals was withdrawn via the femoral artery (50-55 ml/min) until the means arterial pressure dropped to 35 mm Hg and from then on the pressure was kept at this level for three hours. The protocol for evaluating the therapeutic effect of FDP was designed in the following manner. […] Both groups received an additional 500 mg IV bolus of FDP or glucose every 30 min for the duration of the oligemic phase. In five controls and six treated dogs the chest was opened at three hours and with the aid of a specially designed cutting tool that had been cooled in liquid nitrogen, frozen transmural sections from the left ventricle were taken for ATP, creatine phosphate (CP), FDP and lactic acid determinations. The remaining 14 animals (6 controls and 8 treated with FDP) were retransfused at three hours and allowed to recover.
The epicardium and endocardium from the frozen tissue were separated (while still frozen) and homogenized in 6% perchloric acid. The supernatant was used to determine ATP, CP and lactate. The ATP and creatine phosphate were assessed with the method described by Lamprecht (Lamprecht, W., and P. Stein. Methods of Enzymatic Analysis. Ed: H. V. Bergmeyer, New York, Academic Press, 1963, p. 610.) while lactate was measured by the method of Marback (Marback, E. P., and M. H. Weil. Rapid enzymatic measurement of blood lactate and pyruvate. Clin. Chem. 13: 314, 1967). Tissue content of FDP was assessed by the method of Bucher and Hohorst (Bucher, T., and H. J. Hohorst. Dihydroxyacetone phosphate, fructose 1-6 diphosphate and D-glyceraldehyde 3-phosphate. In. Methods of Enzymatic Analysis. Ed: Bermeyer, New York, Academic Press, 1963, pgs. 246-252.)

[2] = test system: hearts of mongrel dogs subjected to normothermic arrest; experiment: global ischemia on cardiopulmonary bypass, normothermic arrest for one hour; type: in vivo, dog
Method: To evaluate the effect of FDP on global ischemia, 14 mongrel dogs were placed on cardiopulmonary bypass and their hearts were subjected to normothermic arrest for one hour. Seven animals had 50 ml. of 5% glucose in 0.9% NaCl infused into the base of the aorta at 0 minutes, 20 minutes and 40 minutes following cross-clamping and, systemically, during reperfusion. The remaining 7 animals were treated identically except that 50 mg. of FDP was given instead of glucose and 2mg/kg/minute was infused systemically during reperfusion. Hemodynamic measurements were taken before ischemia and at 15 and 30 minutes following reperfusion using an isovolumetric technique.

whole blood = experiment: blood preservation: ATP content of refrigerated blood; design: species or system dog
Method: Blood specimens taken from a number of dogs were mixed with FDP in the following proportions: F1-25mg of FDP per 10ml of blood and F2-50mg of FDP per 10ml of blood. The same proportion was prepared with glucose: G1-25mg of glucose per 10ml of blood and G2-50mg of glucose per 10ml of blood. The blood specimens were refrigerated for 24 hours and then the blood was tested for ATP content after 24 hours 14 days.

human WBC = experiment: carbohydrate metabolism of human white blood cells in vitro; type: cell-based; settings: for ATP content: incubated at 37° Celsius
Method: The tests were also conducted to investigate the effect of FDP on white blood cells (WBC) on metabolism in vitro. […] It was experimentally assessed whether FDP can stimulate the carbohydrate metabolism of these cells at rest. A similar phenomenon observed for normal human erythrocytes, sickle cells and dog erythrocytes. From healthy humans and dogs, the white blood cells were separated and incubated at 37° Celsius for various periods of time with FDP, glucose and normal saline. At the end of incubation, ATP and intermediates of the glycolytic pathway were assessed. […] The pyruvic acid concentration in dog WBC incubated with FDP was 10 times greater than those incubated in glucose while those for the human WBC, this difference was of much lesser degree (X2). The dihydroxyacetone (DHA) in the human and canine WBC was 5 to 10 times greater in the FDP incubated than in the glucose ones.

[3] = test system: dogs in surgical anesthesia; experiment: anesthetic requirement to maintain surgical anesthesia in dogs; type: in vivo, dog; settings: FDP n=104 vs controls n=103
[4] = 25mg per 10ml of blood, 24 hours
[5] = 25mg per 10ml of blood, 48 hours
[6] = 25mg per 10ml of blood, 7 days, Incubate 30' 37°
[7] = 50mg per 10ml of blood, 24 hours
[8] = 50mg per 10ml of blood, 48 hours
[9] = 50mg per 10ml of blood, 7 days, Incubate 30' 37°

SMILES: O=C[C@H](O)[C@@H](O)[C@H](O)[C@H](O)CO [glucose, reference compound]
- ischemic EKG changes in control (glucose) animals ([1]; 55 min to 1 hour 15 minutes after onset of shock): All control animals demonstrated ischemic EKG changes
- creatine phosphate (CP) in the endocardium, less than normal ([1]; at three hours): 88%
- creatine phosphate (CP) in the epicardium, less than normal ([1]; at three hours): 64%
- endocardial ATP content, fall ([1]; at three hours): 50%
- endocardial/epicardial tissue lactate ratio ([1]; at three hours): 1.52±0.21
- ST elevation ([1]; maximum at 2 hours, precordial leads): 0.55±0.17 mV
- survival after retransfusion [1]: All 6 control animals that were retransfused died within 24 hours
- ML to LVEDP of 20 mmHg ([2]; 15 minutes after reperfusion): 23.3 ± 1.8 mL
- Peak Effective pressure ([2]; 15 minutes after reperfusion): 36.9 ± 4.4 mmHg
- Peak Mean pressure ([2]; 15 minutes after reperfusion): 17.8 ± 4.2 mmHg
- Peak dp/dt ([2]; 15 minutes after reperfusion): 1126 ± 216 mmHg/sec
- ML to LVEDP of 20 mmHg ([2]; 30 minutes after reperfusion): 19.3 ± 1.3 mL
- Peak Effective pressure ([2]; 30 minutes after reperfusion): 50.8 ± 6.3 mmHg
- Peak Mean pressure ([2]; 30 minutes after reperfusion): 20.5 ± 2.9 mmHg
- Peak dp/dt ([2]; 30 minutes after reperfusion): 1698 ± 350 mmHg/sec
- ML to LVEDP of 20 mmHg ([2]; Pre-Ischemia): 51.4 ± 8.6 mL
- Peak Effective pressure ([2]; Pre-Ischemia): 144.6 ± 14.6 mmHg
- Peak Mean pressure ([2]; Pre-Ischemia): 66.4 ± 7.4 mmHg
- Peak dp/dt ([2]; Pre-Ischemia): 4894 ± 689 mmHg/sec
- ATP (whole blood; [4]): 0.22 m mole/ml
- ATP (whole blood; [5]): 0.32 m mole/ml
- ATP (whole blood; [6]): 0.28 m mole/ml
- ATP (whole blood; 25mg per 10ml of blood, 9 days): 0.26 m mole/ml
- ATP (whole blood; [7]): 0.44 m mole/ml
- ATP (whole blood; [8]): 0.34 m mole/ml
- ATP (whole blood; [9]): 0.18 m mole/ml
- ATP (whole blood; 50mg per 10ml of blood, 9 days): 0.40 m mole/ml
- ATP (whole blood; 14 days, Incubate 40' 37°): 0.88 m mole/ml
- ATP (whole blood; 14 days, No incubation): 0.40 m mole/ml
- ATP content (human WBC): 1.28±0.21 m.mole/#WBC

SMILES: O=C(COP(=O)(O)O)[C@@H](O)[C@H](O)[C@H](O)COP(=O)(O)O [FDP, fructose-1,6-diphosphate]
- outcome of irreversible experimental hemorrhagic shock ([1]; 3 hour duration at 35mm Hg AP): could be successfully treated with FDP
- mortality ([1]; FDP by IV administration): zero
- creatine phosphate (CP) depletion ([1]; FIG. 4, epicardium and endocardium, 35 mm. Hg. for 3 hours): prevents depletion of creatine phosphate (CP) in both epicardium and endocardium
- ATP content in the epicardium ([1]; FIG. 4, hypotension of 35 mm. Hg. for 3 hours, FDP vs controls): no significant difference in ATP content
- myocardial contractility ([1]; Intravenous administration): improves the myocardial contractility
- arterial plasma lactic acid, course after 2 hours ([1]; after 2 hours of hemorrhage): the plasma lactate continued to rise
- heart rate return towards control ([1]; after retransfusion): returned faster towards control
- ATP myocardial content ([1]; at three hours): normal ATP myocardial content and no transmural gradient
- CP in the epicardium (in words) ([1]; at three hours): no deficit in the epicardium
- creatine phosphate (CP) in the endocardium, less than normal ([1]; at three hours): 18%
- endocardial/epicardial tissue lactate ratio ([1]; at three hours): 2.26 ±0.26
- ATP and CP content in the myocardium / endocardium ([1]; dog, in vivo): restores ATP and CP content in the myocardium
- ST elevation (in words) ([1]; dog, in vivo): only minimal elevation was observed in two animals
- activity of glycolysis in the endocardium ([1]; dog, in vivo): restores the depressed activity of glycolysis in the endocardium
- heart rate ([1]; dog, in vivo): < 200 beats/min
- plasma lactate and myocardial tissue lactate ([1]; dog, in vivo): increased plasma lactate and myocardial tissue lactate
- ATP and CP content in the myocardium / endocardium ([1]; dog, in vivo, listed as Fructose diphosphate): increased significantly the ATP and CP in the endocardium
- plasma lactate ([1]; measured at 2 hrs 45 min after the onset of hypotension): 124±16 mg %
- arterial pH ([1]; not exceptional in the group treated with FDP): ≤ 6.8
- animals with spontaneous reversal of blood flow (from the bottle to the animal) ([1]; oligemic phase): only two of them reversed their flow
- electrocardiographic (EKG) ischemic changes ([1]; oligemic phase): In both animals after FDP was given the ischemic changes disappeared; also recorded: prevents the EKG ischemic changes
- electrocardiographic (EKG) ischemic changes ([1]; oligemic phase, listed as Fructose diphosphate): prevented electrocardiographic ischemic changes
- survival after retransfusion [1]: All 8 dogs treated with FDP survived
- renal and bowel function, neurological deficit ([1]; surviving dogs): normal renal and bowel function and no neurological deficit was noted
- amount of blood uptake ([1]; two FDP animals with reversed flow): 24 % of the shed blood and 17 % of the shed blood
- ML to LVEDP of 20 mmHg ([2]; 15 minutes after reperfusion): 33.6 ± 3.7 mL
- Peak Effective pressure ([2]; 15 minutes after reperfusion): 102.1 ± 11.5 mmHg
- Peak Mean pressure ([2]; 15 minutes after reperfusion): 52.8 ± 5.4 mmHg
- Peak dp/dt ([2]; 15 minutes after reperfusion): 2242 ± 226 mmHg/sec
- ML to LVEDP of 20 mmHg ([2]; 30 minutes after reperfusion): 36.1 ± 3.3 mL
- Peak Effective pressure ([2]; 30 minutes after reperfusion): 125 ± 11.5 mmHg
- Peak Mean pressure ([2]; 30 minutes after reperfusion): 61.4 ± 5.1 mmHg
- Peak dp/dt ([2]; 30 minutes after reperfusion): 3999 ± 404 mmHg/sec
- contractility and compliance during recovery ([2]; Intra-aortic and systemic administration): Both contractility and compliance are vastly improved
- ML to LVEDP of 20 mmHg ([2]; Pre-Ischemia): 39.3 ± 3.2 mL
- Peak Effective pressure ([2]; Pre-Ischemia): 165 ± 12.9 mmHg
- Peak Mean pressure ([2]; Pre-Ischemia): 77.5 ± 4.6 mmHg
- Peak dp/dt ([2]; Pre-Ischemia): 4710 ± 689 mmHg/sec
- anesthetic required [3]: twice as much anesthetic
- ATP (whole blood; [4]): 2.32 m mole/ml
- ATP (whole blood; [5]): 2.34 m mole/ml
- ATP (whole blood; [6]): 0.70 m mole/ml
- ATP (whole blood; 25mg per 10ml of blood, 9 days): 0.82 m mole/ml
- ATP (whole blood; [7]): 3.34 m mole/ml
- ATP (whole blood; [8]): 2.08 m mole/ml
- ATP (whole blood; [9]): 2.16 m mole/ml
- ATP (whole blood; 50mg per 10ml of blood, 9 days): 2.04 m mole/ml
- ATP (whole blood; 14 days, Incubate 40' 37°): 1.3 m mole/ml
- ATP (whole blood; 14 days, No incubation): 1.22 m mole/ml
- effect on carbohydrate metabolism (human WBC): profound stimulating effect on the carbohydrate metabolism
- concentration dependence of ATP production (human WBC; 5 to 50 mg/ml FDP, no AMP or ADP): independent of the concentration (from 5 to 50 mg/ml), but rather a function of the incubation time
- concentration dependence of ATP increase (human WBC; AMP or ADP added): the increase of ATP becomes a function of the FDP concentration
- ATP content (human WBC): 2.47±0.25 m.mole/#WBC
